Assay results: patent US20260166122A1, “USE OF MICROPEPTIDE MIAC” (NANJING ANJI BIOTECHNOLOGY CO., LTD, priority 2023, published 2026)
Read-outs that look alike come from different tables or passages of the source. Marks after values point to notes of the source that are not given here. Ends that are not written are not given here.

Tests used:
[1] = system: hepatocellular carcinoma Hep3B cells; assay: transwell migration inhibition, Hep3B; type: cell-based, human; conditions: 48 h
Method: (§1) Human prostate cancer, cervical cancer, osteosarcoma, ovarian cancer, melanoma, and hepatocellular carcinoma cells were inoculated into transwell chambers, with 100 μL per well; for an administration group, 100 μL of a micropeptide MIAC was added to each of the chambers at a different dose; and no medicament was added to a blank group. Then, 0.6 mL of a complete medium comprising 10% FBS was added to transwell lower chambers to stimulate cell migration, followed by incubation at 37° C. with 5% CO2 for 48 h. The culture medium in the wells was discarded, and the cells were fixed with methanol at room temperature for 30 min, stained with 0.1% crystal violet at room temperature for 10 min, and rinsed thoroughly with clear water; the unmigrated cells in the upper layer were wiped off with a cotton swab; and the migrated cells were observed under a microscope, and four visual fields were selected for photography and counting. The migration inhibition rate (MI) was calculated using the following formula: […]
(§2) where Ntest represents the number of migrated cells in the administration group, and Ncontrol represents the number of migrated cells in the blank control group.

[2] = system: human breast cancer cells MCF-7; type: cell-based; conditions: 72 h
[3] = system: malignant melanoma A375 cells; assay: transwell migration inhibition, A375; type: cell-based, human; conditions: 48 h
Method: as §1, §2

[4] = system: human diffuse large B-cell lymphoma cells WSU-DLCL2; type: cell-based; conditions: 72 h
Method: (§3) Human pancreatic cancer, hepatocellular carcinoma, colorectal cancer, ovarian cancer, cervical cancer, bladder cancer, melanoma, glioblastoma, neuroblastoma, glioma, osteosarcoma, myeloma, lymphoma, hematologic malignancies, and cholangiocarcinoma cells were cultured in an incubator at 37° C. with 5% CO2 until the density reached 90%, then digested and collected with trypsin, resuspended in a culture medium, and counted under a microscope; the cell concentration was adjusted to about 1.0×10^5 cells/mL; and the cell suspension was inoculated into a 96-well plate, with 100 μL per well, and incubated overnight in an incubator at 37° C. with 5% CO2. After the cells were completely attached to the wall, 100 μL of micropeptides MIAC with concentrations of 50 μM, 100 μM and 200 μM were added to form an administration group; and a culture medium without any medicament was used as a negative control group. After continuing incubation for 72 h, 100 μL of CCK8 was added to each well of the 96-well plate for dissolving. The absorbance OD was measured at a detection wavelength of 450 nm with a microplate reader, and the proliferation inhibition (PI) was calculated using the formula of PI (%)=1-administration group/negative control group. The experiment was repeated 3 times independently, the results were expressed as Mean±SD, and a statistical T test was performed, where *P<0.05 indicated a significant difference and **P<0.01 indicated an extremely significant difference.

[5] = system: human colon cancer cells SW480; type: cell-based; conditions: 72 h
Method: as §3

[6] = system: human hepatocellular carcinoma cells SMMC-7721; type: cell-based; conditions: 72 h
Method: as §3

[7] = system: human histiocytic lymphoma cells U937; type: cell-based; conditions: 72 h
Method: as §3

[8] = system: human neuroblastoma cells SH-SY5Y; type: cell-based; conditions: 72 h
Method: as §3

[9] = system: human mantle cell lymphoma cells JeKo-1; type: cell-based; conditions: 72 h
Method: as §3

[10] = system: human myeloma cells ARP-1; type: cell-based; conditions: 72 h
Method: as §3

[11] = system: human cerebral astrocytic glioblastoma cells U87-MG; type: cell-based; conditions: 72 h
Method: as §3

[12] = system: human pancreatic cancer cells MIP-PaCa-2; type: cell-based; conditions: 72 h
Method: as §3

[13] = system: human hepatocellular carcinoma cells QGY-7701; type: cell-based; conditions: 72 h
Method: as §3

[14] = system: human diffuse large B-cell lymphoma cells U2932; type: cell-based; conditions: 72 h
Method: as §3

[15] = system: human lymphoma cells Raji; type: cell-based; conditions: 72 h
Method: as §3

[16] = system: human acute non-T non-B lymphocytic leukemia cells Reh; type: cell-based; conditions: 72 h
Method: as §3

[17] = system: human bladder transitional cell carcinoma cells T24; type: cell-based; conditions: 72 h
Method: as §3

[18] = system: human malignant melanoma cells SK-mel-2; type: cell-based; conditions: 72 h
Method: as §3

Sequence: MERAGVPGFSPRRSSVEAKMQSTSCSVRKSSTVTAWPAVVLLLSWGQRRGG [MIAC, micropeptide inhibiting actin cytoskeleton]
- Inhibition rate (%) ([1]; 12.5 μmol/L): 66.54%
- Number of migrated cells ([1]; 12.5 μmol/L): 110.8 ± 29.3
- Inhibition rate (%) ([1]; 25 μmol/L): 65.33%
- Number of migrated cells ([1]; 25 μmol/L): 114.8 ± 27.1
- Inhibition rate (%) ([1]; 50 μmol/L): 64.95%
- Number of migrated cells ([1]; 50 μmol/L): 116.0 ± 26.1
- OD ([2]; MCF-7, 50 μM): 1.281 ± 0.040
- OD ([2]; MCF-7, 100 μM): 0.973 ± 0.027
- OD ([2]; MCF-7, 200 μM): 0.814 ± 0.047
- Inhibition rate (%) ([3]; A375, 12.5 μmol/L): 46.18%
- Number of migrated cells ([3]; A375, 12.5 μmol/L): 139.3 ± 28.5
- Inhibition rate (%) ([3]; A375, 25 μmol/L): 36.52%
- Number of migrated cells ([3]; A375, 25 μmol/L): 164.3 ± 40.1
- Inhibition rate (%) ([3]; A375, 50 μmol/L): 48.70%
- Number of migrated cells ([3]; A375, 50 μmol/L): 132.8 ± 35.1
- OD ([4]; WSU-DLCL2, 50 μM): 0.908 ± 0.061
- OD ([4]; WSU-DLCL2, 100 μM): 0.684 ± 0.039**
- OD ([4]; WSU-DLCL2, 200 μM): 0.264 ± 0.056**
- OD ([5]; SW480, 50 μM): 0.640 ± 0.032**
- OD ([5]; SW480, 100 μM): 0.283 ± 0.007**
- OD ([5]; SW480, 200 μM): 0.147 ± 0.016**
- OD ([6]; SMMC-7721, 50 μM): 1.292 ± 0.012
- OD ([6]; SMMC-7721, 100 μM): 1.032 ± 0.011**
- OD ([6]; SMMC-7721, 200 μM): 0.674 ± 0.033**
- OD ([7]; U937, 50 μM): 1.069 ± 0.028
- OD ([7]; U937, 100 μM): 0.821 ± 0.047**
- OD ([7]; U937, 200 μM): 0.684 ± 0.046**
- OD ([8]; 50 μM): 1.033 ± 0.022
- OD ([8]; 100 μM): 0.822 ± 0.108**
- OD ([8]; 200 μM): 0.665 ± 0.011**
- OD ([9]; JeKo-1, 50 μM): 1.174 ± 0.027
- OD ([9]; JeKo-1, 100 μM): 0.820 ± 0.078**
- OD ([9]; JeKo-1, 200 μM): 0.496 ± 0.052**
- OD ([10]; ARP-1, 50 μM): 0.985 ± 0.008
- OD ([10]; ARP-1, 100 μM): 0.692 ± 0.047**
- OD ([10]; ARP-1, 200 μM): 0.433 ± 0.013**
- OD ([11]; 50 μM): 0.951 ± 0.019
- OD ([11]; 100 μM): 0.785 ± 0.029**
- OD ([11]; 200 μM): 0.656 ± 0.030**
- OD ([12]; MIP-PaCa-2, 50 μM): 0.898 ± 0.035
- OD ([12]; MIP-PaCa-2, 100 μM): 0.866 ± 0.035**
- OD ([12]; MIP-PaCa-2, 200 μM): 0.571 ± 0.038**
- OD ([13]; QGY-7701, 50 μM): 1.185 ± 0.018**
- OD ([13]; QGY-7701, 100 μM): 0.785 ± 0.030**
- OD ([13]; QGY-7701, 200 μM): 0.520 ± 0.019**
- OD ([14]; U2932, 50 μM): 0.426 ± 0.019**
- OD ([14]; U2932, 100 μM): 0.275 ± 0.038**
- OD ([14]; U2932, 200 μM): 0.167 ± 0.025**
- OD ([15]; 50 μM): 0.964 ± 0.037
- OD ([15]; 100 μM): 0.687 ± 0.019**
- OD ([15]; 200 μM): 0.421 ± 0.029**
- OD ([16]; 50 μM): 0.964 ± 0.037
- OD ([16]; 100 μM): 0.687 ± 0.019**
- OD ([16]; 200 μM): 0.421 ± 0.029**
- OD ([17]; T24, 50 μM): 1.125 ± 0.010
- OD ([17]; T24, 100 μM): 0.730 ± 0.085**
- OD ([17]; T24, 200 μM): 0.364 ± 0.043**
- OD ([18]; SK-mel-2, 50 μM): 1.302 ± 0.043**
- OD ([18]; SK-mel-2, 100 μM): 0.822 ± 0.060**
- OD ([18]; SK-mel-2, 200 μM): 0.570 ± 0.011**
